Experimental data from patent KR20110126596A, “자외선 방지제” (고쿠리츠 다이가쿠 호우징 지바 다이가쿠, priority 2008, dated 2010).

Tested on: RS cells [RS 세포]
Assay: MTT assay of UV (UVC) irradiation-induced cell damage in cultured human RS cells pretreated with the substance
Assay type: cell-based
Conditions: UV 14 J/m2; for resistance to UV-induced cell damage compared with cells cultured without addition (in words): EPH 1/10 or 1/100 (v/v), 1 day, 3 days after irradiation (Fig. 2)

For `OCCOc1ccccc1` [페녹시에탄올], the “resistance to UV-induced cell damage compared with cells cultured without addition (in words)” value (listed as EPH) was “높은 저항성을 나타내었다”, the “resistance to UV-induced cell damage compared with cells cultured without addition (in words)” value (listed as 하이솔브 EPH) was “높은 저항성을 나타낸다” and the “resistance to cell damage by UV irradiation, compared with no addition” value (phenoxyethanol added at 1/10 - 1/100 (v/v), 1 day pretreatment, MTT 3 days after irradiation) was no less than 2 fold.
